Test results published in patent US9023864B2, “Indole derivatives as CRTH2 receptor antagonists” (Merck Sharp & Dohme Corp., priority 2009, dated 2015).

The molecules below were run against T1, hCRTH2 (Homo sapiens, UniProt Q9Y5Y4) (assay: Radioligand binding assay ([3H]PGD2 competition, membranes from HEK-hCRTH2 cell line)). Conditions: 0.7 nM [3H]PGD2, membrane protein from HEK-hCRTH2 cell line, 60 min at room temperature; values given as ranges.
T1 construct: expressed in transfected cells; host or cells: HEK cell line expressing hCRTH2 (HEK-hCRTH2); membranes
T1 sequence (Q9Y5Y4 1-395): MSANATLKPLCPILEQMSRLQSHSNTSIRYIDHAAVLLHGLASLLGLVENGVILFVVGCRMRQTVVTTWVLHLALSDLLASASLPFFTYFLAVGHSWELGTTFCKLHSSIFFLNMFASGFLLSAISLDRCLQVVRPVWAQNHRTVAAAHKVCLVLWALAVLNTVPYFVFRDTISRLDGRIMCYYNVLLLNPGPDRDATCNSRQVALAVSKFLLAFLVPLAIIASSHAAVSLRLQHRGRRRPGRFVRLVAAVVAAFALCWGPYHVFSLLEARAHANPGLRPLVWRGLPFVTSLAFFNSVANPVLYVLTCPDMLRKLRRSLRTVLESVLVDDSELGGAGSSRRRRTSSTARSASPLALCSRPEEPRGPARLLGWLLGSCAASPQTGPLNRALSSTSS

SMILES | Ki [nM]
CC(C)(C)OC(=O)N1CCC(c2cnnn2C2CCc3c(CC(=O)O)c4ccccc4n3C2)CC1 (stereo not drawn) [Example 23, 4-[3-(10-Carboxymethyl-6,7,8,9-tetrahydropyrido[1,2-α]indol-7-yl)-3H-[1,2,3]triazol-4-yl]-piperidine-1-carboxylic acid tert-butyl ester] | > 100
O=C(O)Cc1c2n(c3ccccc13)CC(n1nncc1C1(O)c3ccccc3-c3ccccc31)CC2 (stereo not drawn) [Example 25, {7-[5-(9-Hydroxy-9H-fluoren-9-yl)-[1,2,3]triazol-1-yl]-6,7,8,9-tetrahydropyrido[1,2-α]indol-10-yl}-acetic acid] | 10 to 50
O=C(O)Cc1c2n(c3ccccc13)C[C@H](n1nncc1C(c1ccc(F)cc1)c1ccc(F)cc1)CC2 [Example 30, ((R)-7-{5-[Bis-(4-fluoro-phenyl)-methyl]-[1,2,3]triazol-1-yl}-6,7,8,9-tetrahydropyrido[1,2-α]indol-10-yl)-acetic acid] | ≤ 5
O=C(O)Cc1c2n(c3ccccc13)CC(n1nncc1C(O)(c1ccccc1)C(F)(F)F)CC2 (stereo not shown) [Example 35, {7-[5-(2,2,2-trifluoro-1-hydroxy-1-phenyl-ethyl)-1H-1,2,3-triazol-1-yl]-6,7,8,9-tetrahydropyrido[1,2-a]indol-10-yl}acetic acid] | 10 to 50

Second part, the molecule after the results:

Ki [nM] | SMILES
10 to 50 | O=C(O)Cc1c2n(c3ccccc13)CC(n1nncc1C(O)c1ccc(Br)cc1)CC2 (stereo not drawn) [Example 22, (7-{5-[(4-Bromo-phenyl)-hydroxy-methyl]-[1,2,3]triazol-1-yl}-6,7,8,9-tetrahydropyrido[1,2-α]indol-10-yl)-acetic acid]
> 100 | O=C(O)Cc1c2n(c3ccccc13)CC(n1nncc1C1CCCCC1)CC2 (stereo not drawn) [Example 24, [7-(5-Cyclohexyl-[1,2,3]triazol-1-yl)-6,7,8,9-tetrahydropyrido[1,2-α]indol-10-yl]-acetic acid]
≤ 5 | C=C(c1ccc(F)cc1)c1cnnn1C1CCc2c(CC(=O)O)c3ccccc3n2C1 (stereo not drawn) [Example 26, (7-{5-[1-(4-Fluoro-phenyl)-vinyl]-[1,2,3]triazol-1-yl}-6,7,8,9-tetrahydropyrido[1,2-α]indol-10-yl)-acetic acid]
